Measurements from patent US20250221960A1, “COMPOSITIONS AND METHODS FOR THE TREATMENT OF DEPRESSION” (Janssen Pharmaceuticals, Inc., priority 2022, published 2025).

Experiments:
subjects with MDD [1] = assay: Biomarker signature subtyping of MADRS treatment outcome (Example 4); assay type: in vivo, human
Description: Serum or plasma was prepared from the samples of venous blood. Measurements of human CRP and IL-6-R were performed in serum using an MSD Sector 6000 with the kits #K151STD and K151ALC (MesoScale Discovery, Rockville, MD). Human TNFα was quantified in serum using a Simoa HD-1 analyzer with kit #143 (Quanterix, Lexington, MA). Human Dynorphin was assayed in plasma using a SpectraMax M plate reader (Molecular devices, San Jose, CA) with kit #CSB-E09128h (Cusabio, Wuhan, China). All measures were performed according to kit manufacturer's recommendations.
As used in the following biomarker assay analysis, treatment (TRT) refers to treatment with an SSRI/SNRI plus Aticaprant and placebo (PBO) refers to treatment with an SSRI/SNRI plus placebo.
Treatment Outcome: Change in clinical scale at the of end of the double period. Negative values indicate improvement in depression levels relative to baseline levels. The more negative the change, the greater the improvement.
Sig^Pos: Patient meeting the criteria defined by signature of biomarkers and/or clinical scales.
3 MM: Inflammatory biomarker signature with positive status defined by CRP>3 mg/L and (TNFα>4 pg/mL or sIL6R>25 ng/ml).
4 MM: Inflammatory biomarker signature with positive status defined by high dynorphin (δ1) or 3 MM with moderate dynorphin (δ2) subtypes, specifically: DYN>δ1 pg/mL or (DYN>δ2 pg/mL and CRP>3 mg/L and (TNFα>4 pg/ml or sIL6R>25 ng/ml)). In certain embodiments, the 4 MM DYN cutoffs are as follows: Dyn>50 OR (3 MM and Dyn>8); Dyn>24 OR (3 MM and Dyn>8), or Dyn>11.4 and 3 MM.
TE Sig^Pos: Treatment Effect in Signature Positive group: (Average mean MADRS change in placebo-Average mean MADRS change in treatment) in Sig^Pos group.
TE Sig^Neg: Treatment Effect in Signature Negative group.
Sig Adv: Signature Advantage (interaction) Difference in TE between signature groups: Sig Adv=TE Sig^Pos−TE Sig^Neg.
The effect of biomarker signatures on patient response to treatment is summarized in graphical form using two panel box plots in FIG. 25. […] Red color represents placebo and teal represents aticaprant. Rectangular boxes span Diamonds and error bars represent mean and 95% Confidence Interval (CI) of treatment outcome by treatment arm and biomarker signature status. In the signature positive group, the treatment effect (difference in average treatment outcome between treatment arms) was of 6.29 MADRS points (One sided p=0.07, effect size=0.75). While in the signature negative groups, the treatment effect was 1.59 MADRS points. In other words, subjects who are biomarker signature positive improve by an additional 4.7 points […] relative to placebo when treated with aticaprant, compared to subjects who are biomarker signature negative. This signature advantage of 4.7 MADRS points represents the interaction of biomarker signature status with treatment effect. Treatment effects, signature advantage, and corresponding p values are assessed using a linear regression model for treatment outcome with independent variables for treatment, biomarker signature status, and their interaction. All p-values are one sided. Significant is defined as nominal one sided p value <0.05.

subjects with MDD [2] = assay: ASEX sexual functioning, Example 1; assay type: in vivo, human
Excerpt: As used herein, the term “decrease in sexual functioning” refers to reducing or lessening of one or more components of the human sex drive, i.e., sexual functioning. In some embodiments, the sexual functioning comprises one or more of sexual drive, sexual arousal, vaginal lubrication, erection, orgasm achievement, or orgasm satisfaction. In other embodiments, the sexual functioning comprises sexual drive. In further embodiments, the sexual functioning comprises vaginal lubrication satisfaction. In further embodiments, the sexual functioning comprises orgasm achievement. In yet other embodiments, the sexual functioning comprises orgasm satisfaction. Desirably, the patient's sexual functioning is assessed at the time of initial administration of the aticaprant. Thus, the patient's sexual functioning while taking aticaprant can be compared to the patient's sexual functioning before administration of aticaprant. Sexual functioning may be assessed by using standard scales and techniques such as the Arizona Sexual Experience Scale (ASEX). The ASEX is used to investigate whether aticaprant has a further positive or negative effect on sexual function. The ASEX is 5 item rating scale administered to patients that quantifies sexual drive, sexual arousal, vaginal lubrication or penile erection, ability to reach orgasm and satisfaction. Scores range from 5 to 30, and two different versions of the scale are available (males and females).
Patients had their sexual functioning measured using a standard, well accepted rating scale: ASEX. See, Table 32.

subjects with MDD [3] = assay: Treatment-emergent adverse events, full safety analysis set, Example 1
[4] = Table 24, treatment period, Full Safety Analysis Set, 10 mg, N = 85
[5] = Table 25, treatment period, Full Safety Analysis Set, 10 mg, N = 85
[6] = Treatment period, Full Safety Analysis Set, 10 mg, N = 85

**Q.** With `Cc1cc(C)cc(C2CCCN2Cc2ccc(Oc3ccc(C(N)=O)cc3F)cc2)c1` (stereo not drawn) [aticaprant, 3-fluoro-4-4-2-(3,5-dimethylphenyl) pyrrolidin-1-yl-methylphenoxybenzamide] as the molecule, how does the “treatment effect in biomarker signature positive patients” value (subjects with MDD [1]; 3 MM and DYN>δ signature (δ=11.5)) read?
**A.** very large treatment effect

**Q.** And the “average aticaprant response in biomarker signature negative patients” value (subjects with MDD [1]; 3 MM or DYN signature negative)?
**A.** worse than that of placebo

**Q.** And the signature advantage (subjects with MDD [1]; 3 MM or high DYN signature, in more than 60% of patients)?
**A.** 3-8 point

**Q.** And the “signature advantage (TE SigPos - TE SigNeg)” value (subjects with MDD [1]; 3 MM signature)?
**A.** 4.7 MADRS points

**Q.** And the “effect size in signature positive group” value (subjects with MDD [1]; 3 MM signature positive)?
**A.** 0.75

**Q.** What about the “treatment effect in signature positive group (placebo - treatment MADRS change)” value (subjects with MDD [1]; 3 MM signature positive (21% of MDD), end of double-blind) of the same molecule?
**A.** 6.3 MADRS points

**Q.** And the “improvement compared to biomarker signature negative counterpart” value (subjects with MDD [1]; 4 MM signature (63% of MDD))?
**A.** 6 points

**Q.** What about the “MADRS points difference at end DB relative to placebo” value (subjects with MDD [1]; 4 MM signature positive (63% of MDD)) of the same molecule?
**A.** 4.6 MADRS points

**Q.** And the “treatment effects of 4 MM signatures” value (subjects with MDD [1]; DYN>δ1 or (3 MM and DYN>δ2), range of δ1)?
**A.** ≥ 4.5 MADRS points

**Q.** And the “signature advantage of 4 MM signatures” value (subjects with MDD [1]; in 38-63% of patients)?
**A.** > 5 point

**Q.** What about the “ASEX score: Relative % Change” value (subjects with MDD [2]; Endpoint vs Baseline, n = 85) of the same molecule?
**A.** −6.91%

**Q.** What about the “ASEX score: Absolute Change” value (subjects with MDD [2]; Endpoint vs Baseline, n = 85, lower score indicates improvement) of the same molecule?
**A.** −1.47

**Q.** And the “sexual functioning during treatment” value (subjects with MDD [2]; based on assessment at time of initial administration)?
**A.** does not experience a decrease in sexual functioning

**Q.** What about the “mean change from treatment baseline (SD) in ASEX total score” value (subjects with MDD [2]; to week 6) of the same molecule?
**A.** -1.5 (4.02) points

**Q.** And the “TEAE in >=5% of subjects: Diarrhea” value (subjects with MDD [3]; [4])?
**A.** 7 (8) n (%)

**Q.** And the “TEAE in >=5% of subjects: Gastrointestinal Disorders” value (subjects with MDD [3]; [4])?
**A.** 12 (14) n (%)

**Q.** What about the “TEAE in >=5% of subjects: Headache” value (subjects with MDD [3]; [4]) of the same molecule?
**A.** 10 (12) n (%)

**Q.** And the “TEAE in >=5% of subjects: Infections And Infestations” value (subjects with MDD [3]; [4])?
**A.** 13 (15) n (%)

**Q.** And the “TEAE in >=5% of subjects: Nasopharyngitis” value (subjects with MDD [3]; [4])?
**A.** 5 (6) n (%)

**Q.** And the “TEAE in >=5% of subjects: Nervous System Disorders” value (subjects with MDD [3]; [4])?
**A.** 13 (15) n (%)

**Q.** What about the “TEAE in >=5% of subjects: Pruritus” value (subjects with MDD [3]; [4]) of the same molecule?
**A.** 5 (6) n (%)

**Q.** And the “TEAE in >=5% of subjects: Skin And Subcutaneous Tissue Disorders” value (subjects with MDD [3]; [4])?
**A.** 6 (7) n (%)

**Q.** What about the “TEAE in >=5% of subjects: Total no. Subjects with Adverse Events” value (subjects with MDD [3]; [4]) of the same molecule?
**A.** 40 (47) n (%)

**Q.** What about the “TEAE of Special Interest: Abdominal Pain” value (subjects with MDD [3]; [5]) of the same molecule?
**A.** 1 (1.2) n (%)

**Q.** What about the “TEAE of Special Interest: Abdominal Pain Upper” value (subjects with MDD [3]; [5]) of the same molecule?
**A.** 0 n (%)

**Q.** What about the “TEAE of Special Interest: Diarrhea” value (subjects with MDD [3]; [5]) of the same molecule?
**A.** 7 (8.2) n (%)

**Q.** And the “TEAE of Special Interest: Dyspepsia” value (subjects with MDD [3]; [5])?
**A.** 1 (1.2) n (%)

**Q.** And the “TEAE of Special Interest: Gastrointestinal Disorders” value (subjects with MDD [3]; [5])?
**A.** 9 (10.6) n (%)

**Q.** What about the “TEAE of Special Interest: Pruritus” value (subjects with MDD [3]; [5]) of the same molecule?
**A.** 5 (5.9) n (%)

**Q.** What about the “TEAE of Special Interest: Skin And Subcutaneous Tissue Disorders” value (subjects with MDD [3]; [5]) of the same molecule?
**A.** 5 (5.9) n (%)

**Q.** And the “TEAE of Special Interest: Total no. Subjects with Adverse Events of Special Interest” value (subjects with MDD [3]; [5])?
**A.** 13 (15.3) n (%)

**Q.** And the “Subjects with 1 or more TEAE” value (subjects with MDD [3]; [6])?
**A.** 40 (47.1) n (%)

**Q.** And the “Subjects with 1 or more serious TEAE” value (subjects with MDD [3]; [6])?
**A.** 0 n (%)

**Q.** And the “Subjects with TEAE leading to death” value (subjects with MDD [3]; [6])?
**A.** 0 n (%)

**Q.** What about the “Subjects with TEAE leading to discontinuation of agent” value (subjects with MDD [3]; [6]) of the same molecule?
**A.** 1 (1.2) n (%)

**Q.** What about the “Total subjects affected by non-serious adverse events” value (subjects with MDD [3]; [6]) of the same molecule?
**A.** 23 (27.1%) n (%)

**Q.** What about the “Subjects with drug-related TEAE” value (subjects with MDD [3]; Treatment period, Full Safety Analysis Set, 10 mg, N = 85, relationships possible, probable, very likely) of the same molecule?
**A.** 20 (23.5) n (%)

**Q.** What about the “patients who experienced acute cholecystitis” value (subjects with MDD [3]; treatment period) of the same molecule?
**A.** 0 patients

**Q.** And the “TEAE of special interest pruritus, subjects” value (subjects with MDD [3]; treatment period, 5/85)?
**A.** 5.9%

**Q.** And the “TEAE diarrhea, subjects” value (subjects with MDD [3]; treatment period, 7/85)?
**A.** 8.2%

**Q.** And the “TEAE headache, subjects” value (subjects with MDD [3]; treatment period, 10/85)?
**A.** 11.8%

**Q.** And the “subjects who discontinued due to treatment-emergent adverse events” value (subjects with MDD [3]; treatment period, due to diarrhea, nausea, vomiting and headache)?
**A.** 1 subject
